In PMC10539733, “Fluorine NMR study of proline-rich sequences using fluoroprolines” (Magnetic resonance, 2021):
“And” between values parts separate entries of the source, which are not always exact repeats. Identical values can stand only once. Like-named read-outs stand apart in the source and are kept apart here. Square brackets hold non-standard residues; d marks the D form. Ends that are not written are not given here. Peptide text beside a SMILES is read from it. Pro(trans-4-F) = O=C(O)[C@@H]1C[C@@H](F)CN1; Pro(cis-4-F) = O=C(O)[C@@H]1C[C@H](F)CN1

Key:
Vinexin β SH3.3 domain [1] = biological target: T1, Vinexin β SH3.3 domain (Homo sapiens, UniProt O60504); assay: 19F line width (apparent transverse relaxation) analysis of binding kinetics during titration; conditions: fast exchange approximation, 298 K
T1 construct: The Vinexin β SH3.3 was obtained using recombinant expression of a glutathione-S-transferase (GST) fusion protein; GST (N, cleaved yes); made in house; host or cells: Escherichia coli (pGEX plasmids)
T1 sequence (O60504 612-671 limits assumed): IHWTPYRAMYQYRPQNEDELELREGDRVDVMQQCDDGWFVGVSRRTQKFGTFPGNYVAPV
Procedure: The exchange line broadening during the titration experiment also reports on the binding kinetics. Thus, the major ^19 F peaks were fitted using a Lorentzian line shape and the line widths obtained in this way provide an estimate of the apparent transverse relaxation constant R2‡ as a function of peptide concentration (Fig. 7b and c), which can be used to derive the binding kinetics. […]
Processing of 1D ^19 F spectra and quantification were performed using an open-source Python package dedicated to Fourier spectroscopies called “Spectrometry Processing Innovative Kernel” (SPIKE) (Chiron et al., 2016). […] Line fitting was done using the least-square minimizer of the Scipy optimize toolbox to find the optimal set of the signal parameters minimizing the squared differences between the experimental and calculated spectra. […]
Titrations were performed by successive addition of stock peptide solutions to a sample of SH3 protein at 314 µM in a 3 mm NMR tube. […] For every titration point, a 1D ^19 F spectrum and a ^1 H– ^15 N HSQC were recorded at 298K on the same spectrometer, taking advantage of the QCI-F probe. The ^1 H– ^15 N HSQC was recorded using the standard pulse sequence and a 3-9-19 WATERGATE water suppression element. The 200 points were recorded in the indirect dimension to achieve a final resolution of 7.0 and 18.8 Hz per point in the acquisition and indirect dimensions, respectively. […]

Vinexin β SH3.3 domain [2] = biological target: T1, Vinexin β SH3.3 domain; assay: NMR titration, 1H-15N HSQC chemical shift perturbations of 15N-labelled SH3 domain; type: binding
Procedure: In order to measure the binding affinities between the Vinexin β SH3.3 domain and the model peptides, a titration experiment was performed where increasing amounts of peptide were added to a solution of ^15 N-labelled SH3 domain. Apart from MpRS and MpSR peptides, a titration was also performed with a non-fluorinated reference peptide. Just as for most SH3–PRM interaction studies, a gradual frequency shift of a subset of ^1 H– ^15 N correlation peaks in the ^1 H– ^15 N HSQC spectra was observed, indicative of fast exchange between bound and free states of the protein (Fig. 6a). Under this exchange regime, the chemical shifts provide an accurate measure of the bound protein fraction, enabling the determination of an equilibrium dissociation constant Kd (vide infra).
The MpRS and MpSR peptides were produced by solid-phase synthesis using fluorenylmethyloxycarbonyl (Fmoc) amino acids using a model 431A peptide synthesizer from Applied Biosystems (Foster City, CA, USA). Fmoc-protected (4 R )- and (4 S )-FPro amino acids were purchased from Bachem SA. Peptides were purified by reversed-phase HPLC and checked by electrospray ionization and time of flight mass spectrometry (ESI-TOF). The Vinexin β SH3.3 was obtained using recombinant expression of a glutathione-S-transferase (GST) fusion protein in Escherichia coli using pGEX plasmids (Lalevée et al., 2010). After thrombin cleavage, the protein was purified using size-exclusion chromatography and eluted with phosphate buffer (40 mM phosphate, NaCl 100 mM, DTT 2 mM, pH 7). Before titration experiments, a dialysis was performed using 1 and 3 kDa cut-off membrane for the peptide and the protein, respectively, and a common dialysis bath containing the buffer used in interaction experiments. Protein concentrations were determined by measuring the optical density (OD) at 280 nm (molar absorption coefficient 11 460 M ^-1 cm ^-1 ). Peptide concentrations were measured by ^1 H NMR by comparing the integrals of peptide resonances with those of tryptophan of known concentration in a sample containing small amounts (10–30 µM ) of both compounds in D 2 O as described (Kohler et al., 2015). For assignments, lyophilized powder of MpRS and MpSR peptides were dissolved in 170 µL of D 2 O for a final concentration of 1 mM in 3 mm tubes.
Titrations were performed by successive addition of stock peptide solutions to a sample of SH3 protein at 314 µM in a 3 mm NMR tube. In order to reduce the dilution of the initial protein solution and keep the aliquot volumes within values compatible with low pipetting errors (1 to 3 µL ), initial aliquots were added using stock solutions diluted by a factor of 2. The concentrations of the stock solutions were 5.1 and 5.7 mM for MpSR and MpRS, respectively. For every titration point, a 1D ^19 F spectrum and a ^1 H– ^15 N HSQC were recorded at 298K on the same spectrometer, taking advantage of the QCI-F probe. The ^1 H– ^15 N HSQC was recorded using the standard pulse sequence and a 3-9-19 WATERGATE water suppression element. The 200 points were recorded in the indirect dimension to achieve a final resolution of 7.0 and 18.8 Hz per point in the acquisition and indirect dimensions, respectively. The relaxation delay was set to 1 s resulting in a total acquisition time of 16 min. The 1D ^19 F spectra were recorded with a spectral width of 22.522 kHz. The number of scans was adapted to achieve a sufficient signal-to-noise ratio for each concentration of peptide. For the first titration point, at a peptide concentration of 50 µM , 1600 scans were recorded for a total acquisition time of 1 h and 6 min, while 250 scans (10 min acquisition time) were used for the large peptide concentrations.
The composite chemical shift was calculated using […], where ΔδN and ΔδH are the ^15 N and proton chemical shift differences measured between the free protein and the protein in the presence of a given amount of peptide. […]

[3] = biological target: T2, Vinexin β SH3.3 domain (third SH3 domain of the Vinexin β protein) (UniProt O60504 612-671); assay: NMR titration; same kind of titration, 298 K; only the 1H-15N chemical shift perturbations of the SH3 domain fitted, 1:1 model; conditions: both partners purified
T2 construct: Vinexin β, third SH3 domain (SH3.3); 15N-labelled for the titrations; source: E. coli, GST fusion protein (pGEX plasmids), thrombin cleavage, purified (size-exclusion chromatography)
T2 sequence (looked up): T1 sequence (O60504 612-671 limits assumed)

[4] = biological target: T2, Vinexin β SH3.3 domain (third SH3 …); assay: NMR titration; peptide stock added stepwise to 15N-labelled SH3 at 314 µM in a 3 mm tube, 298 K; 19F shifts of the peptide and 1H/15N shifts of the SH3 fitted simultaneously; 1:1 and 1:2 models compared; conditions: both partners purified
[5] = biological target: T2, Vinexin β SH3.3 domain (third SH3 …); assay: NMR titration; 19F line widths (apparent R2) of the peptide against peptide concentration during the titration, fast-exchange approximation; kon fitted independently for each 19F signal, Kd taken from the shift fit; conditions: both partners purified

CC(C)[C@H](NC(=O)[C@H](CCCNC(=N)N)NC(=O)[C@@H]1CCCN1C(=O)[C@@H]1CCCN1C(=O)[C@@H]1CCCN1C(=O)[C@@H]1C[C@@H](F)CN1C(=O)[C@@H]1CCCN1C(=O)[C@H](CO)NC(=O)[C@@H]1CCCN1C(=O)[C@@H]1C[C@H](F)CN1C(=O)[C@@H]1CCCN1C(=O)[C@@H]1CCCN1C(=O)[C@@H]1CCCN1)C(=O)N[C@@H](Cc1ccc(O)cc1)C(=O)N[C@@H](CCCCN)C(=O)O [MpSR] (H-PPP[Pro(cis-4-F)]PSP[Pro(trans-4-F)]PPPRVYK-OH)
kon (Vinexin β SH3.3 domain [1]; from 19F line widths of (4 R )-FPro8 signal, read-out: association kinetics constant kon, (4 R )-FPro8 signal): 1.2e+08 M⁻¹ s⁻¹
kon (Vinexin β SH3.3 domain [1]; from 19F line widths of (4 S )-FPro4 signal, read-out: association kinetics constant kon, (4 S )-FPro4 signal): 9e+07 M⁻¹ s⁻¹

CC(C)[C@H](NC(=O)[C@H](CCCNC(=N)N)NC(=O)[C@@H]1CCCN1C(=O)[C@@H]1CCCN1C(=O)[C@@H]1CCCN1C(=O)[C@@H]1CCCN1C(=O)[C@@H]1CCCN1C(=O)[C@H](CO)NC(=O)[C@@H]1CCCN1C(=O)[C@@H]1CCCN1C(=O)[C@@H]1CCCN1C(=O)[C@@H]1CCCN1C(=O)[C@@H]1CCCN1)C(=O)N[C@@H](Cc1ccc(O)cc1)C(=O)N[C@@H](CCCCN)C(=O)O [non-fluorinated peptide] (H-PPPPPSPPPPPRVYK-OH; N-terminus and C-terminus assumed)
1H-15N composite chemical shift perturbation, Asn 15 (Vinexin β SH3.3 domain [2]; Vinexin β residue Asn 15): 1.093
1H-15N composite chemical shift perturbation, Asp 17 (Vinexin β SH3.3 domain [2]; Vinexin β residue Asp 17): 2.276
1H-15N composite chemical shift perturbation, Gln 14 (Vinexin β SH3.3 domain [2]; Vinexin β residue Gln 14): 1.949
1H-15N composite chemical shift perturbation, Gly 49 (Vinexin β SH3.3 domain [2]; Vinexin β residue Gly 49): 0.812
1H-15N composite chemical shift perturbation, Leu 21 (Vinexin β SH3.3 domain [2]; Vinexin β residue Leu 21): 0.988
1H-15N composite chemical shift perturbation, Thr 50 (Vinexin β SH3.3 domain [2]; Vinexin β residue Thr 50): 1.881
1H-15N composite chemical shift perturbation, Trp 37 (Vinexin β SH3.3 domain [2]; Vinexin β residue Trp 37): 2.011
1H-15N composite chemical shift perturbation, Val 39 (Vinexin β SH3.3 domain [2]; Vinexin β residue Val 39): 3.214
1H-15N composite chemical shift perturbation, Val 56 (Vinexin β SH3.3 domain [2]; Vinexin β residue Val 56): 1.319

B1: MpSR peptide (peptide)
peptide: PPP[Pro(cis-4-F)]PSP[Pro(trans-4-F)]PPPRVYK
notes: P at 4 and 8 stand for fluoroprolines; Two segments of five prolines separated by one serine, followed by RVYK; source: synthetic peptide (Fmoc solid-phase synthesis, reversed-phase HPLC)
Kd [3]: 75 µM
Kd [4]: 96 ± 30 µM
stoichiometry N [4]: 1
kon [5]: 9e+07 M⁻¹ s⁻¹ and 1.2e+08 M⁻¹ s⁻¹

B2: MpRS peptide (peptide)
peptide: PPP[Pro(trans-4-F)]PSP[Pro(cis-4-F)]PPPRVYK
notes: P at 4 and 8 stand for fluoroprolines; source: synthetic peptide (Fmoc solid-phase synthesis, reversed-phase HPLC)
Kd [3]: 220 µM
Kd [4]: 273 ± 30 µM
stoichiometry N [4]: 1

B3: non-fluorinated reference peptide (peptide)
chain: PPPPPSPPPPPRVYK
modifications: Synthetic RAR-gamma-based peptide. Sequence converted from the three-letter residue list in Table 1 (Pro1-5, Ser6, Pro7-11, Arg12-Val13-Tyr14-Lys15), with plain proline at positions 4 and 8. The …
Kd [3]: 74 ± 25 µM
